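48-hour exposure; five concentrations; linearly interpolated endpoints. The concentration for 50% growth inhibition is given as GI50. At the TGI there is no net growth.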
How the values were obtained:
Test in all cases: NCI anticancer screen, dose series, 48 h
SR leukemia = tested on: SR leukemia
HCC-2998 colon = tested on: HCC-2998 colon
UO-31 renal = tested on: UO-31 renal
SN12C renal = tested on: SN12C renal
SNB-19 CNS = tested on: SNB-19 CNS
SK-MEL-5 melanoma = tested on: SK-MEL-5 melanoma
UACC-257 melanoma = tested on: UACC-257 melanoma
LOX IMVI melanoma = tested on: LOX IMVI melanoma
MALME-3M melanoma = tested on: MALME-3M melanoma
OVCAR-4 ovarian = tested on: OVCAR-4 ovarian
NCI-H522 lung = tested on: NCI-H522 lung
U251 CNS = tested on: U251 CNS
SK-OV-3 ovarian = tested on: SK-OV-3 ovarian
HS 578T breast = tested on: HS 578T breast
A498 renal = tested on: A498 renal
A549 NSCLC = tested on: A549 NSCLC
CAKI-1 renal = tested on: CAKI-1 renal
SF-295 CNS = tested on: SF-295 CNS
SK-MEL-2 melanoma = tested on: SK-MEL-2 melanoma
SW-620 colon = tested on: SW-620 colon
MCF7 breast = tested on: MCF7 breast
TK-10 renal = tested on: TK-10 renal
RPMI-8226 leukemia = tested on: RPMI-8226 leukemia
KM12 colon = tested on: KM12 colon
BT-549 breast = tested on: BT-549 breast
OVCAR-8 ovarian = tested on: OVCAR-8 ovarian
HOP-62 NSCLC = tested on: HOP-62 NSCLC
NCI-H460 lung = tested on: NCI-H460 lung
RXF 393 renal = tested on: RXF 393 renal
NCI-H226 lung = tested on: NCI-H226 lung
MOLT-4 leukemia = tested on: MOLT-4 leukemia
HL-60(TB) leukemia = tested on: HL-60(TB) leukemia
SK-MEL-28 melanoma = tested on: SK-MEL-28 melanoma
DU-145 prostate = tested on: DU-145 prostate
HOP-92 NSCLC = tested on: HOP-92 NSCLC
CCRF-CEM leukemia = tested on: CCRF-CEM leukemia
HCT-15 colon = tested on: HCT-15 colon
COLO 205 colon = tested on: COLO 205 colon
IGROV1 ovarian = tested on: IGROV1 ovarian
ACHN renal = tested on: ACHN renal
PC-3 prostate = tested on: PC-3 prostate
UACC-62 melanoma = tested on: UACC-62 melanoma
HT29 colon = tested on: HT29 colon
K-562 leukemia = tested on: K-562 leukemia
OVCAR-3 ovarian = tested on: OVCAR-3 ovarian
NCI/ADR-RES ovarian = tested on: NCI/ADR-RES ovarian
M14 melanoma = tested on: M14 melanoma
EKVX NSCLC = tested on: EKVX NSCLC
OVCAR-5 ovarian = tested on: OVCAR-5 ovarian
T-47D breast = tested on: T-47D breast
MDA-MB-435 = tested on: MDA-MB-435
MDA-MB-231 breast = tested on: MDA-MB-231 breast
HCT-116 colon = tested on: HCT-116 colon
SNB-75 CNS = tested on: SNB-75 CNS
SF-268 CNS = tested on: SF-268 CNS
SF-539 CNS = tested on: SF-539 CNS
786-0 renal = tested on: 786-0 renal

CCOc1ccc([C@H]2C(C(=O)c3ccc(Cl)cc3)C3(N[C@@H]2c2ccccc2)C(=O)Nc2ccc(Br)cc23)cc1 (some centres undefined)
GI50 (SR leukemia): 15.5 µM
TGI (SR leukemia): 44 µM
GI50 (HCC-2998 colon): 15.7 µM
TGI (HCC-2998 colon): 31 µM
GI50 (UO-31 renal): 12.9 µM
TGI (UO-31 renal): 25.6 µM
GI50 (SN12C renal): 15.2 µM
TGI (SN12C renal): 31.2 µM
GI50 (SNB-19 CNS): 15.2 µM
TGI (SNB-19 CNS): 29.7 µM
GI50 (SK-MEL-5 melanoma): 18 µM
TGI (SK-MEL-5 melanoma): 32.7 µM
GI50 (UACC-257 melanoma): 14.7 µM
TGI (UACC-257 melanoma): 29 µM
GI50 (LOX IMVI melanoma): 15.7 µM
TGI (LOX IMVI melanoma): 30.4 µM
GI50 (MALME-3M melanoma): 14.7 µM
TGI (MALME-3M melanoma): 28.5 µM
GI50 (OVCAR-4 ovarian): 14.3 µM
TGI (OVCAR-4 ovarian): 28.1 µM
GI50 (NCI-H522 lung): 14.2 µM
TGI (NCI-H522 lung): 28.2 µM
GI50 (U251 CNS): 15 µM
TGI (U251 CNS): 29.8 µM
GI50 (SK-OV-3 ovarian): 14.5 µM
TGI (SK-OV-3 ovarian): 28.3 µM
GI50 (HS 578T breast): 17.9 µM
TGI (HS 578T breast): 47.8 µM
GI50 (A498 renal): 14.3 µM
TGI (A498 renal): 28.8 µM
GI50 (A549 NSCLC): 13.9 µM
TGI (A549 NSCLC): 28.9 µM
GI50 (CAKI-1 renal): 13.1 µM
TGI (CAKI-1 renal): 26.2 µM
GI50 (SF-295 CNS): 16.1 µM
TGI (SF-295 CNS): 30.3 µM
GI50 (SK-MEL-2 melanoma): 14.1 µM
TGI (SK-MEL-2 melanoma): 27.9 µM
GI50 (SW-620 colon): 18.5 µM
TGI (SW-620 colon): 40.9 µM
GI50 (MCF7 breast): 14 µM
TGI (MCF7 breast): 36.7 µM
GI50 (TK-10 renal): 13.7 µM
TGI (TK-10 renal): 28.8 µM
GI50 (RPMI-8226 leukemia): 22 µM
TGI (RPMI-8226 leukemia): 70.8 µM
GI50 (KM12 colon): 17.1 µM
TGI (KM12 colon): 49.1 µM
GI50 (BT-549 breast): 15.6 µM
TGI (BT-549 breast): 29.9 µM
GI50 (OVCAR-8 ovarian): 16.4 µM
TGI (OVCAR-8 ovarian): 32 µM
GI50 (HOP-62 NSCLC): 14.3 µM
TGI (HOP-62 NSCLC): 28 µM
GI50 (NCI-H460 lung): 16.7 µM
TGI (NCI-H460 lung): 35.5 µM
GI50 (RXF 393 renal): 13.1 µM
TGI (RXF 393 renal): 26.1 µM
GI50 (NCI-H226 lung): 15.1 µM
TGI (NCI-H226 lung): 32.6 µM
GI50 (MOLT-4 leukemia): 18.2 µM
TGI (MOLT-4 leukemia): 73.8 µM
GI50 (HL-60(TB) leukemia): 23.1 µM
TGI (HL-60(TB) leukemia): 63.1 µM
GI50 (SK-MEL-28 melanoma): 16.1 µM
TGI (SK-MEL-28 melanoma): 30.4 µM
GI50 (DU-145 prostate): 17.7 µM
TGI (DU-145 prostate): 38 µM
GI50 (HOP-92 NSCLC): 7.75 µM
TGI (HOP-92 NSCLC): 21.8 µM
GI50 (CCRF-CEM leukemia): 23.1 µM
TGI (CCRF-CEM leukemia): 72 µM
GI50 (HCT-15 colon): 16.1 µM
TGI (HCT-15 colon): 35.3 µM
GI50 (COLO 205 colon): 15 µM
TGI (COLO 205 colon): 30.1 µM
GI50 (IGROV1 ovarian): 14.2 µM
TGI (IGROV1 ovarian): 31.6 µM
GI50 (ACHN renal): 15 µM
TGI (ACHN renal): 28.6 µM
GI50 (PC-3 prostate): 13.8 µM
TGI (PC-3 prostate): 27.6 µM
GI50 (UACC-62 melanoma): 13.3 µM
TGI (UACC-62 melanoma): 27.1 µM
GI50 (HT29 colon): 14.9 µM
TGI (HT29 colon): 31 µM
GI50 (K-562 leukemia): 25.3 µM
TGI (K-562 leukemia): > 100 µM
GI50 (OVCAR-3 ovarian): 17.5 µM
TGI (OVCAR-3 ovarian): 38 µM
GI50 (NCI/ADR-RES ovarian): 19.8 µM
TGI (NCI/ADR-RES ovarian): 44.8 µM
GI50 (M14 melanoma): 15 µM
TGI (M14 melanoma): 30.1 µM
GI50 (EKVX NSCLC): 15.9 µM
TGI (EKVX NSCLC): 35.4 µM
GI50 (OVCAR-5 ovarian): 14.6 µM
TGI (OVCAR-5 ovarian): 29.4 µM
GI50 (T-47D breast): 14.2 µM
TGI (T-47D breast): 35.2 µM
GI50 (MDA-MB-435): 15.9 µM
TGI (MDA-MB-435): 30.3 µM
GI50 (MDA-MB-231 breast): 15.8 µM
TGI (MDA-MB-231 breast): 31.8 µM
GI50 (HCT-116 colon): 14.6 µM
TGI (HCT-116 colon): 29.7 µM
GI50 (SNB-75 CNS): 11.3 µM
TGI (SNB-75 CNS): 23.7 µM
GI50 (SF-268 CNS): 17.3 µM
TGI (SF-268 CNS): 39.4 µM
GI50 (SF-539 CNS): 15.9 µM
TGI (SF-539 CNS): 30.5 µM
GI50 (786-0 renal): 15.4 µM
TGI (786-0 renal): 30.1 µM

Reference: PubChem BioAssay (NCI)
